Experimental data published in patent US20230310573A1, “Stabilized Vaccine Compositions” (priority 2020, published 2023).

Columns and labels:
[1] = biological target: T1, RSV pre-fusion F (preF) protein of SEQ ID NO: 10 (Human respiratory syncytial virus A, UniProt P03420, D486N/DEL108-136/I379V/M447V/N67I/P102A/S215P); assay: Dialysis and slow freezing, trimer by analytical SEC; format: physicochemical
T1 construct: made in house
Procedure: Vials were frozen to −70° C. in 24 hours under controlled conditions. Samples were subsequently thawed to RT and analyzed by analytical Size Exclusion Chromatography (SEC) to measure loss of RSV F trimer compared the sample that was kept at 4° C. In addition, the dialyzed materials with and without stabilizing compound III were evaluated in DSF to measure the melting temperature. For experimental details see example 2.

[2] = biological target: T1, RSV pre-fusion F (preF) protein of SEQ ID NO: 10; assay: Quantification of stabilizing compound III after UF/DF by LC-MS/MS; format: physicochemical; conditions: high excess (1:50) added before UF/DF
Procedure: FIG. 13. Buffer exchange using different buffers & and excess stabilizing compound III. Samples that contained stabilizing compound III, were pre-incubated for 24 h at room temperature (RT). […] Then, samples were assessed for (a) aggregation level by analytical SEC, (b) melting temperature by DSF (Day 0). Individual replicates (n=5 for slow freeze; n=3 for DSF), mean and error bars indicating the standard deviation are depicted. (c) Quantification of stabilizing compound III after UF/DF. Samples that were previously UF/DF-ed and snap frozen were used to quantify the amount of FI left after buffer exchange. Quantification was performed using a LC-MS/MS. Plotted in the left Y axis the concentration from each sample. Right Y axis corresponds to the equivalence of stabilizing compound III molecules per trimer.
Additionally, the concentration of stabilizing compound III present in the samples after UF/DF was determined by LC-MS/MS.

CS(=O)(=O)CCCn1c(Cn2c(=O)n(C3CC3)c3ccncc32)nc2cc(Br)ccc21 [Compound III, 3-[[5-bromo-1-(3-methylsulfonylpropyl)benzimidazol-2-yl]methyl]-1-cyclopropyl-imidazo[4,5-c]pyridin-2-one]
trimer after dialysis and slow freezing ([1]; 1:3 and 1:30 trimer:compound): higher than 90%
aggregation after slow freezing ([1]; pre- and post-dialysis samples, 1:3 and 1:30): protected from aggregation
compound bound after UF/DF (LC-MS/MS) [2]: ~2.6 molecules of stabilizing compound III per trimer
